{"source": "patent US20110207722A1", "about": "“TREATMENT OF ANXIETY DISORDERS” (N[…]/S, priority 2008, published 2011)", "tested_on": "Mice", "assay": "Marble burying test", "assay_type": "in vivo, mouse", "settings": "Compound I 0.05 mg/kg orally 60 min before testing; diazepam 0.03-0.3 mg/kg i.p. 30 min before testing; 30 min test session; n=8", "procedure": "FIGS. 1 and 2 show the effect of the compound exo-7-(8-H-8-aza-bicyclo[3.2.1]oct-3-yloxy)-chromen-2-one (Compound I or Cp I) and diazepam, respectively, in the mouse marble burying test. Compound I (0.05-0.2 mg/kg) was administered orally 60 min before testing. Diazepam (0.1-1 mg/kg) was injected via the intraperitoneal (i.p.) route 30 min before testing. *P<0.05, ***P<0.001 vs. vehicle-treated group (Student's t-test, n=8).\nCompound I (0.05 mg/kg) was administered orally 60 min before testing. Diazepam (0.03-0.3 mg/kg) was injected via the intraperitoneal (i.p.) route 30 min before testing. Paroxetine (10 mg/kg, i.p., −30 min) served as a positive control. *P<0.05, **P<0.01 vs. vehicle-treated group (Student's t-test, n=8).\nMice were placed for 30 min in novel cages (one mouse per cage, 20×30 cm) in which there were 20 glass marbles (15 mm in diameter) situated in four rows of five placed on top of 5 cm of sawdust. […]"}
{"smiles": "O=c1ccc2ccc(O[C@@H]3C[C@H]4CC[C@@H](C3)N4)cc2o1", "note": "[Compound I, exo-7-(8-H-8-aza-bicyclo[3.2.1]oct-3-yloxy)-chromen-2-one]", "values": [{"measurement": "effect on the activity of diazepam in the mouse marble burying test (number of glass marbles buried)", "value": "augments the activity of diazepam"}]}
